Measured values as given in ChEMBL document CHEMBL1132892, “Cyclic thioether peptide mimetics as VCAM-VLA-4 antagonists” (Bioorg Med Chem Lett, 2000).

Tests used:
Integrin alpha-4 [1] = molecular target: T1, Integrin alpha-4 (Homo sapiens, UniProt P13612); assay: Compound was evaluated for VCAM-VLA-4 antagonistic activity using Ramos cell assay; type: functional, cell-based
T1 sequence (P13612 whole entry): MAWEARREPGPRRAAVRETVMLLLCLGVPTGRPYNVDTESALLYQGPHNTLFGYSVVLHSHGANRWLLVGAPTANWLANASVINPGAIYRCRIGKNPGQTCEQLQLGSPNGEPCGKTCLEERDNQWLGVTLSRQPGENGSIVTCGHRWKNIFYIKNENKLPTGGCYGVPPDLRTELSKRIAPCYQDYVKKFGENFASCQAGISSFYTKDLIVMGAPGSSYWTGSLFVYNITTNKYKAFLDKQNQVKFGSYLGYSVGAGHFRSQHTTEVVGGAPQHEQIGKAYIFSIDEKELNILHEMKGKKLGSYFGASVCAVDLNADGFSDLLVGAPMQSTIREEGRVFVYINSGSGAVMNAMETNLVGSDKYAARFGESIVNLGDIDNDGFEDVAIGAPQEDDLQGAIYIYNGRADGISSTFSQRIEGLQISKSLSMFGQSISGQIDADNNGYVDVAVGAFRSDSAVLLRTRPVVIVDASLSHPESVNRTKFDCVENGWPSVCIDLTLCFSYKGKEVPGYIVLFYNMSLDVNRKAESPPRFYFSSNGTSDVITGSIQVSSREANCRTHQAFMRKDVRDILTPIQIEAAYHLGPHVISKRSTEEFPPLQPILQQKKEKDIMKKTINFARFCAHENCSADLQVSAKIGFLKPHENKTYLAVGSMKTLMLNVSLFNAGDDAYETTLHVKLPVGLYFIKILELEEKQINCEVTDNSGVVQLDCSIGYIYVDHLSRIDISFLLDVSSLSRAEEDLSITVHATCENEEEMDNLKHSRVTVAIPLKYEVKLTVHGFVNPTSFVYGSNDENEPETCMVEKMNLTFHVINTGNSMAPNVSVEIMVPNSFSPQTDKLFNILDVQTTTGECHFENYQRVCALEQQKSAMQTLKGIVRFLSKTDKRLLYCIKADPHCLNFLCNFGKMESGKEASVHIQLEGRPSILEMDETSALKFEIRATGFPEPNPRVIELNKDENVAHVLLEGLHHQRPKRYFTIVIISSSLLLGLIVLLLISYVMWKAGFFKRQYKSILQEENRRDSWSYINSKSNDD

Integrin alpha-4 [2] = molecular target: T1, Integrin alpha-4; assay: Compound was evaluated for VCAM-VLA-4 antagonistic activity using solid phase assay; type: functional

IC50 (Integrin alpha-4 [1]) [nM] | IC50 (Integrin alpha-4 [2]) [nM] | Compound
220 | 2.7 | CC(=O)N1CCC(c2ccc(O)cc2)C1C(=O)N[C@H]1CCSC[C@@H](C(=O)O)NC(=O)C2(CCCC2)CCNC1=O (some centres not stated)
 | 35 | CC(=O)N1CCC(c2ccc(O)cc2)C1C(=O)N[C@H]1CCSCC[C@@H](C(=O)O)NC(=O)C2(CCCC2)CCNC1=O (some centres not stated)
20 | 0.5 | CC(=O)N1CCC(c2ccc(O)cc2)C1C(=O)N[C@H]1CSCC[C@@H](C(=O)O)NC(=O)C2(CCCC2)CCNC1=O (some centres not stated)
1.5 | 0.1 | CC(=O)N1CCC(c2ccc(O)cc2)C1C(=O)N[C@H]1CSSC[C@@H](C(=O)O)NC(=O)C2(CCCC2)CCNC1=O (some centres not stated)
